Consider 3 compounds from publication PMC7442216 (Journal of medicinal chemistry, 2019).

This test concerns HIV-1 NL4-3 NanoLuc-sec infection of MT4 cells. Description: MOA comparison: antiviral activity in the presence or absence of enzastaurin. In kind it is cell-based. The following applies: for HIV-1 inhibitory activity in the presence of enzastaurin: enzastaurin 1 μM, 1 at 0.6 nM, 13e at 2 nM.

For `C=C(C)[C@]12C[C@@H](COC(=O)c3ccccc3)[C@@]34OC5(O[C@@H]1[C@@H]3[C@@H]1O[C@]1(CO)[C@@H](O)[C@@]1(O)[C@H]4[C@H]([C@H](C)[C@@H]1OC(=O)c1ccccc1)[C@H](C)CCCCCC[C@H]5O)O2` [Compound 1, gnidimacrin], the “HIV-1 inhibitory activity in the presence of enzastaurin” value is listed as “largely abrogated”.

Regarding `C=C(C)[C@]12C[C@@H](COC(=O)c3ccccc3)[C@@]34OC5(O[C@@H]1[C@@H]3[C@@H]1O[C@]1(CO)[C@@H](O)[C@@]1(O)[C@H]4[C@H]([C@H](C)[C@@H]1OC(=O)c1ccncc1)[C@H](C)CCCCCC[C@H]5O)O2` [Compound 13e, 3-O-(4-Pyridinylcarbonyl) Stelleramacrin], the “HIV-1 inhibitory activity in the presence of enzastaurin” value was “able to abrogate”. Also, the “antiviral potency relative to 1” value (in this assay) is “approximately threefold weaker”.

Regarding `Cn1cc(C2=C(c3cn(C4CCN(Cc5ccccn5)CC4)c4ccccc34)C(=O)NC2=O)c2ccccc21` [enzastaurin, reference compound], the “antagonism of GM's HIV-1 inhibitory activity” value (enzastaurin at 1 μM, GM at 0.6 nM) is recorded as “effectively antagonized”.
